The structures appear in SMILES notation.

The target of assay [1] is T1, glucocorticoid receptor (Homo sapiens, UniProt P04150).
T1 construct: a partially purified full length glucocorticoid receptor were added to the plates
T1 sequence (P04150 1-777): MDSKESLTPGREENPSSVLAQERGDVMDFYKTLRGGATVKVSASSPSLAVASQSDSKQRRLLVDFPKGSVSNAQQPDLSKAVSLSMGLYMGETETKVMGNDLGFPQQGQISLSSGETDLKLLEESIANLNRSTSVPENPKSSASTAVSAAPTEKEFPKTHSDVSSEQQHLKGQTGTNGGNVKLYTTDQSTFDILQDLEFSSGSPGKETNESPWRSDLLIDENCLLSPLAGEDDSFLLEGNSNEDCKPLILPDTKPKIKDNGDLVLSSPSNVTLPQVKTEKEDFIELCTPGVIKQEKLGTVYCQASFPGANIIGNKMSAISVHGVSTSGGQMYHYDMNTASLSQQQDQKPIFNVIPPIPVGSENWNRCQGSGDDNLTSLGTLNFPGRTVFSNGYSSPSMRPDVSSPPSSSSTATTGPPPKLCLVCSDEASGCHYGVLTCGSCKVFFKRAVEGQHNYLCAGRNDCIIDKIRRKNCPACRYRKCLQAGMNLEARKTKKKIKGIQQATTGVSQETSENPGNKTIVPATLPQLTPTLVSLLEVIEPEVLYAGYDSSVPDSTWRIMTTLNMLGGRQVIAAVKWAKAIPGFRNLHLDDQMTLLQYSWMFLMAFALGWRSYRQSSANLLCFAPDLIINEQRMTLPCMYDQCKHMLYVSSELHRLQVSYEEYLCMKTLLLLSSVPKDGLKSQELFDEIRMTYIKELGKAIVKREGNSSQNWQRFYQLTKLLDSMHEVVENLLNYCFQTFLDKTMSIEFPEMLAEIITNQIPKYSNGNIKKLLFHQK
The assay can be described thus: Glucocorticoid Receptor Binding Assay (fluorescence polarisation, competition with Alexa 555 labelled dexamethasone derivative). The conditions noted are these: displacement of fluorescent dexamethasone, partially purified full length glucocorticoid receptor, 2 hours at room temperature; read-out: glucocorticoid binding pIC50 (converted). On the procedure:
Glucocorticoid Receptor Binding Assay
The ability of compounds to bind to the glucocorticoid receptor was determined by assessing their ability to compete with an Alexa 555 fluorescently-labelled dexamethasone derivative. Compounds were solvated and dilutedin DMSO, and transferred directly into assay plates. Fluorescent dexamethasone and a partially purified full length glucocorticoid receptor were added to the plates, together with buffer components to stabilise the GR protein (including stabilisation peptide (Panvera catalogue number P2815)) andincubated at room temperature for 2 hours in the dark. Binding of each compound was assessed by analysing the displacement of fluorescent ligand by measuring the decrease in fluorescence polarisation signal from the mixture.
Background: In fluorescence polarisation assays a small probe gives low polarisation when free and higher when bound to something large.

The test system of assay [2] is NFkB Activity. Kind of assay: Glucocorticoid Mediated Transrepression of NFkB Activity (A549 cells, NFkB dependent ELAM promoter, secreted placental alkaline phosphatase reporter, TNFα stimulated). It counts as cell-based. The conditions noted are these: Human A549 lung epithelial cells, 3 ng/ml human recombinant TNFα, 16 hr; read-out: pEC50, transrepression of NFkB activity (converted). The text has this: Glucocorticoid Mediated Transrepression of NFkB Activity
Human A549 lung epithelial cells were engineered to contain a secreted placental alkaline phosphatase gene under the control of the distal region of the NFkB dependent ELAM promoter as previously described in Ray, K. P., Farrow, S., Daly, M., Talabot, F. and Searle, N. “Induction of the E-selectin promoter by interleukin 1 and tumour necrosis factor alpha, andinhibition by glucocorticoids” Biochemical Journal (1997) 328: 707-15.
Compounds were solvated and dilutedin DMSO, and transferred directly into assay plates such that the final concentration of DMSO was 0.7%. Following the addition of cells (40K per well), plates were incubated for 1 hr prior to the addition of 3 ng/ml human recombinant TNFα. Following continued incubation for 16 hr, alkaline phosphatase activity was determined by measuring the change in optical density at 405 nm with time following the addition of 0.7 volumes of assay buffer (1 mg/ml p-nitrophenylphosphate dissolvedin 1M diethanolamine, 0.28M NaCl, 0.5 mM MgCl2). Dose response curves were constructed from which EC50 values were estimated.

As for `COc1ccc(F)cc1C(C)(C)CC(O)(CNc1cc(C)cc2c1cnn2-c1cccc(C(=O)N[C@H]2CCOC2=O)c1)C(F)(F)F` (single isomer, unassigned) [Example 21-A], in assay [1], the IC50 was below 316 nM. For the same compound, the EC50 in assay [2] is below 10 nM.
